The values that follow are results of earlier work, collected in US8216786B2, “Genetic polymorphisms associated with cardiovascular diseases, methods of detection and uses thereof” (Celera Corporation, priority 2008, dated 2012).

The structures appear in SMILES notation.

This series deals with animal models and myocyte cultures. Conditions: compared to lipophilic statins; cited from earlier work.

As to `CC[C@H](C)C(=O)O[C@H]1C[C@H](O)C=C2C=C[C@H](C)[C@H](CC[C@@H](O)C[C@@H](O)CC(=O)O)[C@H]21` [pravastatin], the myopathic potential entry is on record as “low myopathic potential”.
